Key:
[1] = target: T1, β5 subunit of the human constitutive proteasome (CPS) (Homo sapiens, UniProt P28074); test: β5 inhibition assay, human constitutive proteasome (Suc-LLVY-AMC); assay type: biochemical; settings: IC50 class, Suc-LLVY-AMC substrate
T1 construct: purchased Boston Biochem E-360
Method: The enzymatic activity of the β5 subunit of the human constitutive proteasome (CPS) is analyzed. In another assay, which differs from the assay of the human constitutive proteasome only in using the human immunoproteasome (IPS) the enzymatic activity of the β5 subunit of the human immunoproteasome (IPS) is analyzed. […] Inhibition is indicated as IC50 [nM] (“-”=not measured).

hPMBC = test: Chymotrypsin-like ProteasomeGlo assay in hPBMC; assay type: cell-based; settings: Homo sapiens; read-out: Pglo hPBMC
How it was run: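 B cells isolated from human PBMC (buffy coats, density gradient, magnetic isolation). Cells treated with compound for 105 min at 37 °C, with staurosporine and DMSO included. Chymotrypsin-like proteasome activity read by luminescence with Suc-LLVY-Glo substrate to derive IC50.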

Compound	IC50 [1]	IC50 (hPMBC)
CC(=O)N[C@H]1CC(=O)N2CCCC(CCOc3ccc(C)c(c3)CNC(=O)C(c3cc(C)n(C)n3)NC1=O)C2 (stereo partly drawn) [Compound 561, N-((12S)-9-(1,5-dimethyl-1H-pyrazol-3-yl)-5^4-methyl-8,11,14-trioxo-4-oxa-7,10-diaza-1(3,1)-piperidina-5(1,3)-benzenacyclotetradecaphane-12-yl)acetamide]	< 100 nM	< 100 nM
CC(=O)N[C@H]1CC(=O)N2CCCC(CCOc3ccc(C)c(c3)CNC(=O)C(c3cn[nH]c3)NC1=O)C2 (stereo partly drawn) [Compound 562, N-((12S)-5^4-methyl-8,11,14-trioxo-9-(1H-pyrazol-4-yl)-4-oxa-7,10-diaza-1(3,1)-piperidina-5(1,3)-benzenacyclotetradecaphane-12-yl)acetamide]	< 100 nM	< 100 nM
CC(=O)N[C@H]1CC(=O)N2CCCC(CCOc3ccc(C)c(c3)CNC(=O)C(CCc3nccs3)NC1=O)C2 (stereo partly drawn) [Compound 563, N-((12S)-5^4-methyl-8,11,14-trioxo-9-(2-(thiazol-2-yl)ethyl)-4-oxa-7,10-diaza-1(3,1)-piperidina-5(1,3)-benzenacyclotetradecaphane-12-yl)acetamide]	< 100 nM	< 100 nM
CC(=O)N[C@H]1CC(=O)N2CCCC(CCOc3ccc(C)c(c3)CNC(=O)C(c3cnn(CCOCCOCCOCCN)c3)NC1=O)C2 (stereo partly drawn) [Compound 566, N-((12S)-9-(1-(2-(2-(2-(2-aminoethoxy)ethoxy)ethoxy)ethyl)-1H-pyrazol-4-yl)-5^4-methyl-8,11,14-trioxo-4-oxa-7,10-diaza-1(3,1)-piperidina-5(1,3)-benzenacyclotetradecaphane-12-yl)acetamide]	< 100 nM	100 to 500 nM
CC(=O)N[C@H]1CC(=O)N2CCCC(CCOc3ccc(C)c(c3)CNC(=O)C(c3cnn(CCC(=O)O)c3)NC1=O)C2 (stereo partly drawn) [Compound 567, 3-(4-((12S)-12-acetamido-5^4-methyl-8,11,14-trioxo-4-oxa-7,10-diaza-1(3,1)-piperidina-5(1,3)-benzenacyclotetradecaphane-9-yl)-1H-pyrazol-1-yl)propanoic acid]	< 100 nM	< 100 nM
